Measurements reported in patent publication US20150212068A1, “Cholyl-L-Lysyl-Fluorescein Assay” (Novassay SA, priority 2012, published 2015).
Entries after “also recorded” stand apart in the source; their conditions may differ.

System: serum/plasma proteins
Test: Effect of ANS on CLF recovery in the labelled-antibody format
Assay type: in vitro ADME
Settings: human serum/plasma spiked with CLF, competitive immunoassay
From the text: This was successful in shifting the mean recovery to ˜100%. However, an unacceptably wide sample-to-sample variation was still observed (˜70-180%), therefore it was concluded that a blocker approach would be required, in which a chemical agent is used to displace the analyte from the binding proteins, so that it can be recovered effectively in the assay. […] ANS was therefore evaluated in more detail in this format.
The following study was executed to assess the recovery of CLF following spiking into human serum in assays, in the presence and absence of ANS.
25 μl of standard (in buffer) was added to streptavidin coated wells, followed by 100 ul of 20 ng/ml biotin-fluorescein (one formulation containing 0.2% ANS, the other without) and 100 μl of anti-fluorescein HRP (100 ng/ml). After 30 minutes incubation (RT/static) the wells were washed and 100 μl of SureBlue Reserve TMB substrate added. After a further 10 minutes incubation, 100 μl of 1M HCl was added and the colour intensity measured at 450 nm.
3 plasma samples (Lithium heparin) were spiked with CLF at […]; these concentrations (the expected values) are noted in the relevant sample IDs.

SMILES: O=S(=O)(O)c1cccc2cccc(Nc3ccccc3)c12 [ANS, 8-anilino-1-naphthalene sulfonic acid]
- displacement of CLF from serum/plasma proteins by blocker: effective in displacing CLF bound to serum/plasma proteins; also recorded: able to displace CLF from serum proteins
